Measurements from ChEMBL document CHEMBL4828717, “Synthetic cajaninstilbene acid derivatives eradicate methicillin-resistant Staphylococcus aureus persisters and biofilms” (Eur J Med Chem, 2021).

Experiments:
L02 = assay: Cytotoxicity against human L02 cells assessed as cell viability at 10 ug/ml measured after 24 hrs by MTT assay; type: cell-based; conditions: l02, 24 h, dose 10 µg/ml
Staphylococcus aureus [1] = assay: Antibacterial activity against methicillin resistant Staphylococcus aureus ATCC 52056 assessed as reduction in microbial growth after 16 to 18 hrs by microbroth dilution method; type: functional; conditions: time 16-18 hrs
Staphylococcus aureus [2] = assay: Antibacterial activity against methicillin resistant Staphylococcus aureus ATCC49025 assessed as reduction in microbial growth after 16 to 18 hrs by microbroth dilution method; type: functional; conditions: time 16-18 hrs
RAW264.7 = assay: Cytotoxicity against mouse RAW264.7 cells assessed as cell viability at 10 ug/ml measured after 24 hrs by MTT assay; type: cell-based; conditions: raw264.7, 24 h, dose 10 µg/ml
Staphylococcus aureus [3] = assay: Antibacterial activity against methicillin resistant Staphylococcus aureus ATCC 62202 assessed as reduction in microbial growth after 16 to 18 hrs by microbroth dilution method; type: functional; conditions: time 16-18 hrs
Pseudomonas aeruginosa = assay: Antibacterial activity against Pseudomonas aeruginosa ATCC27853 assessed as reduction in microbial growth after 16 to 18 hrs by microbroth dilution method; type: functional; conditions: time 16-18 hrs
Staphylococcus aureus [4] = assay: Antibacterial activity against methicillin resistant Staphylococcus aureus ATCC48966 assessed as reduction in microbial growth after 16 to 18 hrs by microbroth dilution method; type: functional; conditions: time 16-18 hrs
Staphylococcus aureus [5] = assay: Antibacterial activity against methicillin resistant Staphylococcus aureus ATCC 43300 assessed as reduction in microbial growth after 16 to 18 hrs by microbroth dilution method; type: functional; conditions: time 16-18 hrs
Staphylococcus aureus [6] = assay: Antibacterial activity against methicillin resistant Staphylococcus aureus ATCC49008 assessed as reduction in microbial growth after 16 to 18 hrs by microbroth dilution method; type: functional; conditions: time 16-18 hrs
Staphylococcus aureus [7] = assay: Antibacterial activity against methicillin resistant Staphylococcus aureus ATCC48073 assessed as reduction in microbial growth after 16 to 18 hrs by microbroth dilution method; type: functional; conditions: time 16-18 hrs
Staphylococcus aureus [8] = assay: Antibacterial activity against methicillin resistant Staphylococcus aureus ATCC48706 assessed as reduction in microbial growth after 16 to 18 hrs by microbroth dilution method; type: functional; conditions: time 16-18 hrs
Staphylococcus aureus [9] = assay: Antibacterial activity against methicillin resistant Staphylococcus aureus ATCC515992 assessed as reduction in microbial growth after 16 to 18 hrs by microbroth dilution method; type: functional; conditions: time 16-18 hrs
Escherichia coli = assay: Antibacterial activity against Escherichia coli ATCC25922 assessed as reduction in microbial growth after 16 to 18 hrs by microbroth dilution method; type: functional; conditions: ATCC 25922, time 16-18 hrs
Staphylococcus aureus [10] = assay: Antibacterial activity against Staphylococcus aureus ATCC 25923 assessed as reduction in microbial growth after 16 to 18 hrs by microbroth dilution method; type: functional; conditions: time 16-18 hrs
Enterococcus faecalis = assay: Antibacterial activity against Enterococcus faecalis ATCC29212 assessed as reduction in microbial growth after 16 to 18 hrs by microbroth dilution method; type: functional; conditions: ATCC 29212, time 16-18 hrs
Staphylococcus aureus [11] = assay: Antibacterial activity against methicillin resistant Staphylococcus aureus ATCC49800 assessed as reduction in microbial growth after 16 to 18 hrs by microbroth dilution method; type: functional; conditions: time 16-18 hrs
Staphylococcus aureus [12] = assay: Antibacterial activity against methicillin resistant Staphylococcus aureus ATCC513045 assessed as reduction in microbial growth after 16 to 18 hrs by microbroth dilution method; type: functional; conditions: time 16-18 hrs

Row | Compound | Activity (L02) | MIC (Staphylococcus aureus [1]) [µg/mL] | MIC (Staphylococcus aureus [2]) [µg/mL] | Activity (RAW264.7) | MIC (Staphylococcus aureus [3]) [µg/mL] | MIC (Pseudomonas aeruginosa) [µg/mL] | MIC (Staphylococcus aureus [4]) [µg/mL] | MIC (Staphylococcus aureus [5]) [µg/mL] | MIC (Staphylococcus aureus [6]) [µg/mL] | MIC (Staphylococcus aureus [7]) [µg/mL] | MIC (Staphylococcus aureus [8]) [µg/mL] | MIC (Staphylococcus aureus [9]) [µg/mL] | MIC (Escherichia coli) [µg/mL] | MIC (Staphylococcus aureus [10]) [µg/mL] | MIC (Enterococcus faecalis) [µg/mL] | MIC (Staphylococcus aureus [11]) [µg/mL] | MIC (Staphylococcus aureus [12]) [µg/mL]
1 | CCC(C)Oc1cc(/C=C/c2ccc(C(F)(F)F)cc2)c(C(=O)O)c(O)c1CC=C(C)C (stereo not drawn) | Toxic | 2 | 2 | Toxic | 2 | > 32 | 2 | 1 | 2 | 2 | 2 | 2 | > 32 | 2 | > 32 | 2 | 2
2 | CC(C)=CCc1c(OCC(F)(F)F)cc(/C=C/c2ccc(C(F)(F)F)cc2)c(C(=O)O)c1O | Toxic | 2 | 2 | Toxic | 2 | > 32 | 2 | 2 | 2 | 2 | 2 | 2 | > 32 | 2 | > 32 | 2 | 2
3 | CC(C)=CCc1c(OC2CCCC2)cc(/C=C/c2ccc(F)cc2)c(C(=O)O)c1O | Toxic | 2 | 4 | Toxic | 2 | > 32 | 4 | 2 | 4 | 4 | 4 | 2 | > 32 | 2 | > 32 | 4 | 2
4 | CC(C)=CCc1c(OC(C)C)cc(/C=C/c2ccc(F)cc2)c(C(=O)O)c1O | Toxic | 2 | 4 | Toxic | 4 | > 32 | 4 | 4 | 4 | 4 | 4 | 2 | > 32 | 4 | > 32 | 4 | 8
5 | CC(C)=CCc1c(OC2CCC2)cc(/C=C/c2ccc(F)cc2)c(C(=O)O)c1O | Toxic | 2 | 2 | Toxic | 4 | > 32 | 2 | 2 | 2 | 2 | 2 | 4 | > 32 | 2 | > 32 | 2 | 2
6 | CC(C)=CCc1c(OCCC(F)(F)F)cc(/C=C/c2ccc(F)cc2)c(C(=O)O)c1O | Toxic | 4 | 4 | Toxic | 4 | > 32 | 4 | 4 | 4 | 4 | 4 | 4 | > 32 | 4 | > 32 | 4 | 2
7 | CC(C)=CCc1c(OCC(F)F)cc(/C=C/c2ccc(C(F)(F)F)cc2)c(C(=O)O)c1O | Toxic | 2 | 2 | Toxic | 2 | > 32 | 2 | 2 | 2 | 2 | 2 | 2 | > 32 | 2 | > 32 | 2 | 2
8 | CC(C)=CCc1c(OC2CCCCCC2)cc(/C=C/c2ccc(C(F)(F)F)cc2)c(C(=O)O)c1O | Toxic | 1 | 4 | Toxic | 2 | > 32 | 4 | 1 | 4 | 4 | 4 | 4 | > 32 | 4 | > 32 | 4 | 2
9 | COc1cc(/C=C/c2ccccc2)c(C(=O)O)c(O)c1CC=C(C)C | – | 16 | 8 | – | 16 | > 32 | 8 | 16 | 8 | 8 | 8 | 16 | > 32 | 8 | > 32 | 8 | 16
10 | NC[C@H]1O[C@H](O[C@H]2[C@H](O)[C@@H](O[C@H]3O[C@H](CO)[C@@H](O)[C@H](N)[C@H]3O)[C@H](N)C[C@@H]2N)[C@H](N)[C@@H](O)[C@@H]1O [BEKANAMYCIN] | – | – | – | – | – | – | – | 128 | – | – | – | – | – | – | – | – | –
11 | CC1(C)S[C@@H]2[C@H](NC(=O)[C@H](N)c3ccccc3)C(=O)N2[C@H]1C(=O)O [AMPICILLIN] | – | > 128 | > 128 | – | > 128 | > 32 | > 128 | > 128 | > 128 | > 128 | > 128 | > 128 | > 32 | 4 | > 32 | > 128 | > 128
12 | GENTAMICIN | – | – | – | – | – | – | – | 16 | – | – | – | – | – | – | – | – | –
13 | CCn1cc(C(=O)O)c(=O)c2cc(F)c(N3CCNCC3)cc21 [NORFLOXACIN] | – | 2 | 1 | – | 2 | > 32 | 1 | 32 | 1 | 1 | 2 | 32 | > 32 | 2 | > 32 | 1 | 32
